# Results published in patent publication US7354734B2, “Fungal proteins and nucleic acids encoding same” (priority 2003, dated 2008).
# Where “and” joins values, the source holds several entries; their conditions need not be identical. Identical values can stand only once. Like-named read-outs stand apart in the source and are kept apart here.
# T1: pkLAP (microsomal LAP from porcine kidney) (Sus scrofa, UniProt P15145)
# T1 construct: purchased Sigma; host or cells: porcine kidney
# T1 sequence (P15145 1-963): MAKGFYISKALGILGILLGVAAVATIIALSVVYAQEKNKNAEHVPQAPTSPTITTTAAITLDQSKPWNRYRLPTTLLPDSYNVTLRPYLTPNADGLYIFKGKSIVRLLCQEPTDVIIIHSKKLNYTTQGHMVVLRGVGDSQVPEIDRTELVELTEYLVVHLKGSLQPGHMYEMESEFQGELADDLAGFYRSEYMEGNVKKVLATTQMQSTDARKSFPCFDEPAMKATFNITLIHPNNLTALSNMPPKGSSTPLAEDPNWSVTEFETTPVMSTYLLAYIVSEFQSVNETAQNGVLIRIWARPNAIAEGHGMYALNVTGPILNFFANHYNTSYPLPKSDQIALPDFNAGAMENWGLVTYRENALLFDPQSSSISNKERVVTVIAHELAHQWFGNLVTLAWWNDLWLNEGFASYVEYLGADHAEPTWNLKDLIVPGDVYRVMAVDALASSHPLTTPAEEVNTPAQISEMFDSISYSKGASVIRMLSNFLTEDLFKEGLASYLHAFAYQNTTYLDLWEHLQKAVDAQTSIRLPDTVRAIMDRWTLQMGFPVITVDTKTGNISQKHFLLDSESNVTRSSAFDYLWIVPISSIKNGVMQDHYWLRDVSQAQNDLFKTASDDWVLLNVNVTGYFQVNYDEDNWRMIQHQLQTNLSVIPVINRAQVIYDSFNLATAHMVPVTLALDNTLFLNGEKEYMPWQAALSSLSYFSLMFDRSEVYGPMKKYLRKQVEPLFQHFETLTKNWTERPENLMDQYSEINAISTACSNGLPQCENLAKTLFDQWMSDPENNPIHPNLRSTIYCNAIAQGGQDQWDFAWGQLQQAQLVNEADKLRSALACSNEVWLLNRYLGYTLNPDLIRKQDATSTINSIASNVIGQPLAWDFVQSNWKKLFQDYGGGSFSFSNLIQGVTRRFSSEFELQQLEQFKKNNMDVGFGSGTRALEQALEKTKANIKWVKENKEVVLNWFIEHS
# Legend:
# [1] = target: T1, pkLAP (microsomal LAP from porcine kidney); assay: Effect of inhibitors and metallic cations on LAP activity (Leu-AMC); format: biochemical; details: for pkLAP activity as percentage of control reaction without any cation / pkLAP activity as percentage of control reaction without inhibitor: Leu-MCA substrate, 15 min pre-incubation; for effect of divalent cation on pkLAP activity: Leu-AMC, cations 0.5 mM and 1 mM
# [2] = target: ruLAP1 (Trichophyton rubrum, UniProt Q5QHG5); format: biochemical; details: for ruLAP1 activity as percentage of control reaction without inhibitor: Leu-MCA substrate, 15 min pre-incubation
# Sequence of ruLAP1 (Q5QHG5 21-373): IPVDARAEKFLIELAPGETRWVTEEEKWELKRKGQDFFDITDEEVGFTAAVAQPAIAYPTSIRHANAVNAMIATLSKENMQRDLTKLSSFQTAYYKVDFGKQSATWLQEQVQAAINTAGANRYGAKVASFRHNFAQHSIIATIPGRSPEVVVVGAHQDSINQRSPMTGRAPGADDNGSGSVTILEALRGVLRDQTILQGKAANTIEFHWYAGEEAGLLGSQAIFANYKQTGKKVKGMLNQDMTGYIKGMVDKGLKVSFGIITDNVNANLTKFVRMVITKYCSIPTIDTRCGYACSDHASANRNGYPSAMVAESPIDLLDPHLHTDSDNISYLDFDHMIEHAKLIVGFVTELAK
# [3] = tested on: fuLAP2; format: biochemical, Aspergillus fumigatus; details: for fuLAP2 activity as percentage of control reaction without any cation / fuLAP2 activity as percentage of control reaction without inhibitor: Leu-MCA substrate, 15 min pre-incubation
# [4] = target: ruLAP2 (Trichophyton rubrum, UniProt Q5QHG6); format: biochemical; details: for ruLAP2 activity as percentage of control reaction without any cation / ruLAP2 activity as percentage of control reaction without inhibitor: Leu-MCA substrate, 15 min pre-incubation
# Sequence of ruLAP2 (Q5QHG6 20-495): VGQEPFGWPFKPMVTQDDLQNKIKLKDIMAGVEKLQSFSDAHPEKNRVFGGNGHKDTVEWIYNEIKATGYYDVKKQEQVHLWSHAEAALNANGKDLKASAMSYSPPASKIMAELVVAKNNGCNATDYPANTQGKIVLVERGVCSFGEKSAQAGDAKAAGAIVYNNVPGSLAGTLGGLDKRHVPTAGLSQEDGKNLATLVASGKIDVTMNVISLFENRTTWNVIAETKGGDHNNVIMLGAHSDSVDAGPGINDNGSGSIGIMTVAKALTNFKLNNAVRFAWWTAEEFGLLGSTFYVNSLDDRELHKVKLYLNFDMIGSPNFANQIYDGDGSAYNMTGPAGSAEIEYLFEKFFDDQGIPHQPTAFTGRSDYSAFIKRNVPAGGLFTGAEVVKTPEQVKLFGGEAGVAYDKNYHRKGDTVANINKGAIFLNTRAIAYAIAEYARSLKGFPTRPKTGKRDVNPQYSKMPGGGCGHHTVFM
# [5] = target: fuLAP1 (Aspergillus fumigatus, UniProt Q5VJG6); assay: biochemical; format: biochemical; details: for fuLAP1 activity as percentage of control reaction without any cation / fuLAP1 activity as percentage of control reaction without inhibitor: Leu-MCA substrate, 15 min pre-incubation
# Sequence of fuLAP1 (Q5VJG6 16-388): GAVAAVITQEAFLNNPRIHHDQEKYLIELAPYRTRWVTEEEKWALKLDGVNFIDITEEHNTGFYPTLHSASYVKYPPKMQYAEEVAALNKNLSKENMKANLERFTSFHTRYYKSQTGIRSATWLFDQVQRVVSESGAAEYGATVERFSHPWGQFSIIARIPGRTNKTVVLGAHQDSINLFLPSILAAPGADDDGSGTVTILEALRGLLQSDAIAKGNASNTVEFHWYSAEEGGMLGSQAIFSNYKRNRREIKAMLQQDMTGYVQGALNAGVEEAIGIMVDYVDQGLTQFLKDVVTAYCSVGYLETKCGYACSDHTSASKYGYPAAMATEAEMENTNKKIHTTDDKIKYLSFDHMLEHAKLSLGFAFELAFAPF
# [6] = tested on: gliadin 33mer (fragment 57-89 of gliadin MM1); assay: Digestion of gliadin 33mer (RP-HPLC, ESI-MS); format: biochemical, wheat; details: for digestion of gliadin 33mer, enzyme alone: 37° C.
# [7] = Leu-AMC, cations 0.5 mM and 1 mM
molecule,measurement,setting,value
"[Cl][Mn][Cl] [Mn^++, MnCl2]",pkLAP activity as percentage of control reaction without any cation,[1]; cation salt 0.5 mM,157.6%
same,pkLAP activity as percentage of control reaction without any cation,[1]; cation salt 1 mM,165.8%
same,ruLAP1 activity as percentage of control reaction without any cation,[2],120.7% and 105.2%
same,effect of divalent cation on fuLAP2 activity,[3]; [7],activated
same,fuLAP2 activity as percentage of control reaction without any cation,[3]; cation salt 0.5 mM,84.3%
same,fuLAP2 activity as percentage of control reaction without any cation,[3]; cation salt 1 mM,140.2%
same,ruLAP2 activity as percentage of control reaction without any cation,[4]; cation salt 0.5 mM,77.5%
same,ruLAP2 activity as percentage of control reaction without any cation,[4]; cation salt 1 mM,86.8%
same,effect of divalent cation on fuLAP1 activity,[5]; [7],inhibited
same,fuLAP1 activity as percentage of control reaction without any cation,[5]; cation salt 0.5 mM,25.9%
same,fuLAP1 activity as percentage of control reaction without any cation,[5]; cation salt 1 mM,28.4%
"[Cl][Ni][Cl] [Ni, NiCl2]",effect of divalent cation on pkLAP activity,[1],highly activated
same,pkLAP activity as percentage of control reaction without any cation,[1]; cation salt 0.5 mM,1187.7%
same,pkLAP activity as percentage of control reaction without any cation,[1]; cation salt 1 mM,1158.7%
same,ruLAP1 activity as percentage of control reaction without any cation,[2],74.8% and 58.1%
same,fuLAP2 activity as percentage of control reaction without any cation,[3]; cation salt 0.5 mM,98.4%
same,fuLAP2 activity as percentage of control reaction without any cation,[3]; cation salt 1 mM,149.3%
same,ruLAP2 activity as percentage of control reaction without any cation,[4]; cation salt 0.5 mM,130.5%
same,ruLAP2 activity as percentage of control reaction without any cation,[4]; cation salt 1 mM,147.9%
same,fuLAP1 activity as percentage of control reaction without any cation,[5]; cation salt 0.5 mM,51.7%
same,fuLAP1 activity as percentage of control reaction without any cation,[5]; cation salt 1 mM,37.2%
c1cnc2c(c1)ccc1cccnc12 [orthophenanthroline],pkLAP activity as percentage of control reaction without inhibitor,[1]; inhibitor 1 mM,0%
same,pkLAP activity as percentage of control reaction without inhibitor,[1]; inhibitor 5 mM,0%
same,ruLAP1 activity as percentage of control reaction without inhibitor,[2]; inhibitor 1 mM,0%
same,ruLAP1 activity as percentage of control reaction without inhibitor,[2]; inhibitor 5 mM,0%
same,fuLAP2 activity as percentage of control reaction without inhibitor,[3]; inhibitor 1 mM,0%
same,fuLAP2 activity as percentage of control reaction without inhibitor,[3]; inhibitor 5 mM,0%
same,ruLAP2 activity as percentage of control reaction without inhibitor,[4]; inhibitor 1 mM,0%
same,ruLAP2 activity as percentage of control reaction without inhibitor,[4]; inhibitor 5 mM,0%
same,fuLAP1 activity as percentage of control reaction without inhibitor,[5]; inhibitor 1 mM,0%
same,fuLAP1 activity as percentage of control reaction without inhibitor,[5]; inhibitor 5 mM,0%
Chymotrypsin,"digestion of the peptide, with addition of ruLAP2",[6],not able to breakdown
same,"digestion of gliadin 33mer, enzyme alone",[6],not able to breakdown
same,"digestion of the peptide, with addition of DPPIV","[6]; same conditions, E/S (w:w) 1:50",not able to breakdown
Cc1ccc(S(=O)(=O)N[C@@H](CCCCN)C(=O)CCl)cc1 [TLCK],effect of inhibitor on pkLAP activity,[1]; Leu-AMC 5 mM,no clear inhibitory effects
same,pkLAP activity as percentage of control reaction without inhibitor,[1]; inhibitor 20 μM,113%
same,effect of inhibitor on ruLAP1 activity,[2]; Leu-AMC 5 mM,no clear inhibitory effects
same,ruLAP1 activity as percentage of control reaction without inhibitor,[2]; inhibitor 20 μM,68%
same,effect of inhibitor on fuLAP2 activity,[3]; Leu-AMC 5 mM,no clear inhibitory effects
same,fuLAP2 activity as percentage of control reaction without inhibitor,[3]; inhibitor 20 μM,120%
same,effect of inhibitor on ruLAP2 activity,[4]; Leu-AMC 5 mM,no clear inhibitory effects
same,ruLAP2 activity as percentage of control reaction without inhibitor,[4]; inhibitor 20 μM,96%
same,effect of inhibitor on fuLAP1 activity,[5]; Leu-AMC 5 mM,no clear inhibitory effects
same,fuLAP1 activity as percentage of control reaction without inhibitor,[5]; inhibitor 20 μM,80%
"[Cl-].[Cl-].[Zn+2] [Zn, ZnCl2]",effect of divalent cation on pkLAP activity,[1],highly activated
same,pkLAP activity as percentage of control reaction without any cation,[1]; cation salt 0.5 mM,437.6%
same,pkLAP activity as percentage of control reaction without any cation,[1]; cation salt 1 mM,297.9%
same,ruLAP1 activity as percentage of control reaction without any cation,[2],43.0% and 68.9%
same,fuLAP2 activity as percentage of control reaction without any cation,[3]; cation salt 0.5 mM,51.4%
same,fuLAP2 activity as percentage of control reaction without any cation,[3]; cation salt 1 mM,119.5%
same,ruLAP2 activity as percentage of control reaction without any cation,[4]; cation salt 0.5 mM,77.9%
same,ruLAP2 activity as percentage of control reaction without any cation,[4]; cation salt 1 mM,88.9%
same,fuLAP1 activity as percentage of control reaction without any cation,[5]; cation salt 0.5 mM,60.7%
same,fuLAP1 activity as percentage of control reaction without any cation,[5]; cation salt 1 mM,53.2%
"Cytosolic porcine kidney aminopeptidase: cytosolic leucine aminopeptidase from porcine kidney, Sigma (protein, UniProt P28839 1-519, looked up) Cytosol aminopeptidase: MFLLPLPAAARVAVRQLSVRRFWGPGPDAANMTKGLVLGIYSKEKEDDAPQFTSAGENFDKLVSGKLREILNISGPPLKAGKTRTFYGLHEDFSSVVVVGLGKKGAGVDDQENWHEGKENIRAAVAAGCRQIQDLEIPSVEVDPCGDAQAAAEGAVLGLYEYDELKQKKKVVVSAKLHGSGDQEAWQRGVLFASGQNLARHLMETPANEMTPTRFAEVIEKNLKSASSKTDVHIRPKSWIEEQEMGSFLSVAKGSEEPPVFLEIHYKGSPDASDPPLVFVGKGITFDSGGISIKASANMDLMRADMGGAATICSTIVSAAKLDLPINLVGLAPLCENMPSGKANKPGDVVRAKNGKTIQVDNTDAEGRLILADALCYAHTFNPKVIINAATLTGAMDIALGSGATGVFTNSSWLWNKLFEASIETGDRVWRMPLFEHYTKQIVDCQLADVNNIGKYRSAGACTAAAFLKEFVTHPKWAHLDIAGVMTNKDEVPYLRKGMAGRPTRTLIEFLLRFSQDSA","digestion of gliadin 33mer, enzyme alone",[6],totally inactive
